In patent publication US8033977B2, “Methods of enhancing radiation effects with metal nanoparticles” (NanoProbes, Inc., priority 1998, dated 2011):

Columns and labels:
[1] = test system: cellular DNA; conditions: after incorporation into cellular DNA in vitro; 22-45% of thymine substituted; cited from earlier work
[2] = test system: CD1 mice; assay: In vivo tolerance of tungsten heteropolyanions in mice; conditions: injected into CD1 mice
Description: A column containing carboxymethyl cellulose medium was prepared and charged with tetramethylammonium acetate, then rinsed with deionized water. Silicotungstic acid (H4SiW12O40.30H2O, 10 mg/ml in water) was injected onto the column and ion exchanged to produce the cluster surrounded and charge-shielded by quaternary ammonium ions.
A complex between the quaternary cation, tetramethylammonium was also formed by mixing equimolar amounts of H4SiW12O40.30H2O, 10 mg/ml in water and tetramethylammonium bromide, 100 mg/ml in water. Some white precipitate was formed that was removed by centrifugation at 13 k×g for 10 minutes, then filtering through a molecular filter, Amicon Centricon 30, that only passes molecules less than 30,000 Daltons. […] Dilutions were prepared and injected into CD1 mice. Good tolerance and normal weight gain was found at blood concentrations of approximately 5 mg/ml, whereas the uncomplexed heteropoltungstate was lethal at 1 mg/ml.

[3] = test system: test animal tumor models; conditions: co-administered with PALA, tetrahydrouridine and 5-fluoro-2′deoxyctidine, fractionated x-ray treatments; cited from earlier work

## O=c1[nH]c(=O)n([C@H]2C[C@H](O)[C@@H](CO)O2)cc1I [iododeoxyuridine]
[1]
  radiotherapeutic advantage (factor): about 3

## Silicotungstic acid [uncomplexed heteropoltungstate]
[2]
  lethal blood concentration: 1 mg/mL

## Nc1nc(=O)n([C@H]2C[C@H](O)[C@@H](CO)O2)cc1Cl [5-chloro-2′-deoxycytidine]
[3]
  dose enhancement: threefold
